According to US7253189B2, “Cannabinoid receptor ligands” (Schering Corporation, priority 2002, dated 2007):

molecular target: T1, recombinant human cannabinoid CB2 receptor (Homo sapiens, UniProt P34972); experiment: competition with [3H] CP-55,940 for binding to recombinant cannabinoid CB2 receptor membranes; settings: not given
T1 construct: purchased Receptor Biology RB-HCB2
Experimental: Potential cannabinoid receptor ligands were screened for the ability to compete with [^3H] CP-55,940 for binding to recombinant cannabinoid receptors. Test compounds were serially diluted in Diluent Buffer (50 mM Tris pH 7.1, 1 mM EDTA, 3 mM MgCl2, 0.1% BSA, 10% DMSO, 0.36% methyl cellulose (Sigma M-6385)) from stocks prepared in 100% DMSO. Aliquots (10 μl) were transferred into 96-well microtiter plates. Membrane preparations of recombinant human cannabinoid CB2 receptor (Receptor Biology #RB-HCB2) or recombinant human cannabinoid CB1 receptor (Receptor Biology #RB-HCB1) were diluted to 0.3 mg/ml in Binding Buffer (50 mM Tris pH 7.2, 1 mM EDTA, 3 mM MgCl2, 0.1% BSA). Aliquots (50 μl) were added to each well of the microtiter plate. The binding reactions were initiated by addition of [^3H] CP-55,940 (New England Nuclear # NET 1051; specific activity=180 Ci/mmol available from New England Nuclear) to each well of the microtiter plate. Each 100 μl reaction mixture contained 0.48 nM [^3H] CP-55,940, 15 ug membrane protein in binding buffer containing 1% DMSO and 0.036% methyl cellulose. Following incubation for 2 hours at room temperature, the reaction mixtures were filtered through 0.5% polyethylenimine-coated GF/C filter plates (UniFilter-96, Packard) with a TomTec Mark 3U Harvester (Hamden, Conn.). The filter plate was washed 5 times with binding buffer, rotated 180°, then re-washed 5 times with binding buffer. Bound radioactivity was quantitated following addition of 30 μl of Packard Microscint 20 scintillant in a Packard TopCount NXT microplate scintillation counter. Non-linear regression analysis of the resulting data was performed using Prism 2.0b (from GraphPad, San Diego, Calif.).
The activities (potencies) for the compounds of the invention are determined by measuring their Ki values.

T1 sequence (P34972 whole entry): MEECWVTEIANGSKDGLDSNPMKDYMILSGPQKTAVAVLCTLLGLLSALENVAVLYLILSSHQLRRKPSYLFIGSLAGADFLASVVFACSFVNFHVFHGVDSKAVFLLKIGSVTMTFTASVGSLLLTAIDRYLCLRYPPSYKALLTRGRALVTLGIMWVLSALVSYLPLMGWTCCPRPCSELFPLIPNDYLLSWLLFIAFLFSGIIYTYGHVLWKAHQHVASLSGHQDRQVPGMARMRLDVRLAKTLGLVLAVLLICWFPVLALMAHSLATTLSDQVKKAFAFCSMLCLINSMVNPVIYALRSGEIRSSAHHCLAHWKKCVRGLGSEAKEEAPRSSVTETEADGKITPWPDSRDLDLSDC

With `CS(=O)(=O)NC1CCc2cc(C(=O)c3ccc(OC(F)(F)F)cc3S(=O)(=O)c3ccccc3F)ccc21` (stereo not drawn) [Compound 2] as the compound, how does the Ki read?
The Ki was < 20 nM.

`CS(=O)(=O)NC1CCc2cc(S(=O)(=O)c3ccc(C4CC4)cc3S(=O)(=O)c3ccccn3)ccc21` (stereo not drawn) [Compound 9] was tested. Which Ki did it give?
The Ki was < 20 nM.

same assay, conditions: 0.48 nM [3H] CP-55,940, 15 ug membrane protein, 2 hours at room temperature; read-out: CB2 Ki

Which Ki does the source give for `COc1ccc(S(=O)(=O)c2ccc3c(c2)CCC3NS(=O)(=O)C(F)(F)F)c(S(=O)(=O)c2ccccc2F)c1` (stereo not drawn) [Compound 5] here?
The Ki was < 20 nM.

How did the Ki turn out when `O=S(=O)(c1ccc2c(c1)CCC2NS(=O)(=O)C(F)(F)F)c1ccc(Cl)cc1S(=O)(=O)c1ccccc1F` (stereo not drawn) [Compound 6] was run?
The Ki was < 20 nM.

`CS(=O)(=O)NC1CCc2cc(S(=O)(=O)c3ccc(Cl)cc3S(=O)(=O)c3ccccn3)ccc21` (stereo not drawn) [Compound 8] was tested. Which Ki did it give?
Its Ki is < 20 nM.

For `CS(=O)(=O)NC1CCc2cc(S(=O)(=O)c3cc4ccccc4n3S(=O)(=O)c3ccccn3)ccc21` (stereo not drawn) [Compound 10], which Ki is on record?
The Ki was < 20 nM.

How did the Ki turn out when `O=S(=O)(c1ccc2c(c1)CCC2NS(=O)(=O)C(F)(F)F)c1ccc(C2CC2)cc1S(=O)(=O)c1ccccn1` (stereo not drawn) [Compound 12] was run?
The Ki was < 20 nM.

Which Ki does the source give for `O=C(NC1CCc2cc(S(=O)(=O)c3ccc(C4CC4)cc3S(=O)(=O)c3ccccn3)ccc21)C(F)(F)F` (stereo not drawn) [Compound 19] here?
Its Ki is < 20 nM.

How did the Ki turn out when `O=C(NC1CCc2cc(Cc3ccc(OC(F)(F)F)cc3S(=O)(=O)c3ccccc3F)ccc21)C(F)(F)F` (stereo not drawn) [Compound 23] was run?
The Ki was < 20 nM.
